# Data as given in ChEMBL document CHEMBL6127124, “Structure-Activity Relationships and Discovery of (S)-5-(tert-Butyl)-11-(difluoromethoxy)-9-methoxy-2-oxo-1,2,5,6-tetrahydropyrido[2',1':2,3]imidazo[4,5-h]quinoline-3-carboxylic Acid (AB-161), a Novel Orally Available and Liver-Centric HBV RNA Destabilizer” (J Med Chem, 2024).
# How the values were obtained:
# [1] = system: RNA; experiment: Destabilization of HBV RNA assessed as decrease in HBsAg production by cell-based assay; conditions: Hepatitis B virus
# [2] = system: Hepatitis B virus; experiment: Antiviral activity against HBV infected in immuno-competent mouse model assessed as log10 reduction serum HBsAg; format: functional
# [3] = system: Hepatitis B virus; experiment: In vivo destabilization of HBV RNA in immuno-competent mouse model of chronic HBV assessed as log10 reduction in HBV DNA; format: functional
# [4] = Chemical stability of compound in PBS assessed as compound remaining measured after 6 days by HPLC UV analysis; format: physicochemical; conditions: buffer, 144 h; time 6 day
# [5] = Oral bioavailability in CD-1 mouse at 10 mg/kg measured for 24 hrs by LC-MS/MS analysis; format: ADME, organism-based; conditions: in vivo
# [6] = system: Hepatitis B virus; experiment: Antiviral activity against HBV genotype D in immuno-competent C57BL/6 mouse model of chronic HBV assessed as log10 reduction in HBsAg production at 10 mg/kg, po qd for 7 days measured 24 hrs post-last dose by EIA relative to control; format: functional; conditions: time 8 day
# [7] = target: T1, CYP1A2 (Homo sapiens, UniProt P05177); experiment: Inhibition of CYP1A2 in human liver microsomes using phenacetin as substrate preincubated for 30 min followed by NADPH addition measured after 12 mins by LC-MS/MS analysis; format: ADME, Microsome; conditions: human, liver microsomes, probe phenacetin
# T1 sequence (P05177 whole entry): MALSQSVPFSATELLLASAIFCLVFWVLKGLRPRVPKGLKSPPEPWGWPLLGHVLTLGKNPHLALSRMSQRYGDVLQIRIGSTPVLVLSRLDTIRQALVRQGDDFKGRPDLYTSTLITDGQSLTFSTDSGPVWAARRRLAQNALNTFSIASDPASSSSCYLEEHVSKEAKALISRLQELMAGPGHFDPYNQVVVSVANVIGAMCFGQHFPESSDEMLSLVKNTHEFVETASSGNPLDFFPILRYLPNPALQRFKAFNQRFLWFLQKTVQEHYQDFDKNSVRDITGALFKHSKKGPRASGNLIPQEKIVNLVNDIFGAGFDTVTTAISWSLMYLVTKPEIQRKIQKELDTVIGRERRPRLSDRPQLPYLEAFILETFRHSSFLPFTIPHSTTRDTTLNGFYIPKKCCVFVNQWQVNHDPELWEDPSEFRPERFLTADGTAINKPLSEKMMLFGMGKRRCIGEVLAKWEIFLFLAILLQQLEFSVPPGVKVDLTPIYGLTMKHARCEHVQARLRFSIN
# [8] = target: CYP2C9 (Homo sapiens, UniProt P11712); experiment: Inhibition of CYP2C9 in human liver microsomes using diclofenac as substrate preincubated for 30 min followed by NADPH addition measured after 12 mins by LC-MS/MS analysis; format: ADME, Microsome; conditions: human, liver microsomes, probe diclofenac
# Sequence of CYP2C9 (P11712 whole entry): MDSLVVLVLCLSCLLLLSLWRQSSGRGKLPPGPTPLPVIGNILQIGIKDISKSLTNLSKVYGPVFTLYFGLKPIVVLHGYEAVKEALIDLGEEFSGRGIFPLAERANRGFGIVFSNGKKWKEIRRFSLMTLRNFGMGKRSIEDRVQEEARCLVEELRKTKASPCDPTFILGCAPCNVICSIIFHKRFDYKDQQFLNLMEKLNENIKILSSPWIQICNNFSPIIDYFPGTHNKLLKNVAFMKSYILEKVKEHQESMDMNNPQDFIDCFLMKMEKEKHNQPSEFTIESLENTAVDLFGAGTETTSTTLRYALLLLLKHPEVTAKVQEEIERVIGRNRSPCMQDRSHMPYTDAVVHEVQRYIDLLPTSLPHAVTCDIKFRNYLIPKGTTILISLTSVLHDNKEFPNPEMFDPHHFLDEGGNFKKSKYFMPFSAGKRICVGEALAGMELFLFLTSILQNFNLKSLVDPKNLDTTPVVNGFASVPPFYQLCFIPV
# [9] = target: CYP2C19 (Homo sapiens, UniProt P33261); experiment: Inhibition of CYP2C19 in human liver microsomes using S-mephenytoin as substrate preincubated for 30 min followed by NADPH addition measured after 12 mins by LC-MS/MS analysis; format: ADME, Microsome; conditions: human, liver microsomes, probe S-mephenytoin
# Sequence of CYP2C19 (P33261 whole entry): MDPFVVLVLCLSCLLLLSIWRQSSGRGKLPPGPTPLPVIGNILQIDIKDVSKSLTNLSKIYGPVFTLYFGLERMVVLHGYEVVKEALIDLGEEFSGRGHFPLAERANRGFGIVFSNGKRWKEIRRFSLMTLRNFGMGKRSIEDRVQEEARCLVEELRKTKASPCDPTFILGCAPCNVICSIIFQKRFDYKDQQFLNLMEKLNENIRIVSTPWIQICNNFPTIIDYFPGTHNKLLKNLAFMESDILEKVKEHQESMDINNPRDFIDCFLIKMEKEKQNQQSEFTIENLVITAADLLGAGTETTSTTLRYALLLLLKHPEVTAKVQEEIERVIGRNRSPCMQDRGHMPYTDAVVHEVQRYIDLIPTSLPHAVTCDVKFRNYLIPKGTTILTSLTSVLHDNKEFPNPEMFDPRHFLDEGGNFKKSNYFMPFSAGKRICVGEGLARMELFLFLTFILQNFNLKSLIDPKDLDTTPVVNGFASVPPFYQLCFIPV
# [10] = Drug concentration in Sprague-Dawley rat plasma at 10 mg/kg, po measured for 24 hrs by LC-MS/MS analysis; format: ADME, organism-based; conditions: read-out: Ct
# [11] = Drug concentration in Sprague-Dawley rat heart at 10 mg/kg, po measured for 24 hrs by LC-MS/MS analysis; format: ADME, organism-based; conditions: read-out: Ct
# [12] = Ratio of drug concentration in liver to plasma of Sprague-Dawley rat at 10 mg/kg, po measured for 24 hrs by LC-MS/MS analysis; format: ADME, organism-based; conditions: liver and plasma
# [13] = Ratio of drug concentration in heart to plasma of Sprague-Dawley rat at 10 mg/kg, po measured for 24 hrs by LC-MS/MS analysis; format: ADME, organism-based; conditions: heart and plasma
# [14] = Total Cmax in Beagle dog at 5 mg/kg, po qd measured after 91 days; format: ADME, organism-based, Canis lupus familiaris; conditions: in vivo, time 91 day
# [15] = Free Cmax in Beagle dog at 5 mg/kg, po qd measured after 91 days; format: ADME, organism-based, Canis lupus familiaris; conditions: in vivo, 2184 h, time 91 day
# [16] = Free AUC (0 to 24 hrs) in Beagle dog at 5 mg/kg, po qd measured after 91 days; format: ADME, organism-based, Canis lupus familiaris; conditions: in vivo, 2184 h, time 91 day
# [17] = Free AUC (0 to 24 hrs) in Beagle dog at 15 mg/kg, po qd measured after 91 days; format: ADME, organism-based, Canis lupus familiaris; conditions: in vivo, 2184 h, time 91 day
# [18] = Total Cmax in Beagle dog at 45 mg/kg, po qd measured after 91 days; format: ADME, organism-based, Canis lupus familiaris; conditions: in vivo, time 91 day
# [19] = Free AUC (0 to 24 hrs) in Beagle dog at 45 mg/kg, po qd measured after 91 days; format: ADME, organism-based, Canis lupus familiaris; conditions: in vivo, 2184 h, time 91 day
# [20] = Free AUC (0 to 24 hrs) in Beagle dog at 60 mg/kg, po qd measured after 91 days; format: ADME, organism-based, Canis lupus familiaris; conditions: in vivo, 2184 h, time 91 day
# [21] = Toxicity in Beagle dog assessed as splayed limbs at 60 mg/kg, po qd measured after 34 days; format: organism-based, Canis lupus familiaris; conditions: in vivo, 816 h, time 34 day
# [22] = target: Voltage-gated inwardly rectifying potassium channel KCNH2 (Homo sapiens, UniProt Q12809); experiment: Inhibition of hERG; format: toxicity
# Sequence of Voltage-gated inwardly rectifying potassium channel KCNH2 (Q12809 whole entry): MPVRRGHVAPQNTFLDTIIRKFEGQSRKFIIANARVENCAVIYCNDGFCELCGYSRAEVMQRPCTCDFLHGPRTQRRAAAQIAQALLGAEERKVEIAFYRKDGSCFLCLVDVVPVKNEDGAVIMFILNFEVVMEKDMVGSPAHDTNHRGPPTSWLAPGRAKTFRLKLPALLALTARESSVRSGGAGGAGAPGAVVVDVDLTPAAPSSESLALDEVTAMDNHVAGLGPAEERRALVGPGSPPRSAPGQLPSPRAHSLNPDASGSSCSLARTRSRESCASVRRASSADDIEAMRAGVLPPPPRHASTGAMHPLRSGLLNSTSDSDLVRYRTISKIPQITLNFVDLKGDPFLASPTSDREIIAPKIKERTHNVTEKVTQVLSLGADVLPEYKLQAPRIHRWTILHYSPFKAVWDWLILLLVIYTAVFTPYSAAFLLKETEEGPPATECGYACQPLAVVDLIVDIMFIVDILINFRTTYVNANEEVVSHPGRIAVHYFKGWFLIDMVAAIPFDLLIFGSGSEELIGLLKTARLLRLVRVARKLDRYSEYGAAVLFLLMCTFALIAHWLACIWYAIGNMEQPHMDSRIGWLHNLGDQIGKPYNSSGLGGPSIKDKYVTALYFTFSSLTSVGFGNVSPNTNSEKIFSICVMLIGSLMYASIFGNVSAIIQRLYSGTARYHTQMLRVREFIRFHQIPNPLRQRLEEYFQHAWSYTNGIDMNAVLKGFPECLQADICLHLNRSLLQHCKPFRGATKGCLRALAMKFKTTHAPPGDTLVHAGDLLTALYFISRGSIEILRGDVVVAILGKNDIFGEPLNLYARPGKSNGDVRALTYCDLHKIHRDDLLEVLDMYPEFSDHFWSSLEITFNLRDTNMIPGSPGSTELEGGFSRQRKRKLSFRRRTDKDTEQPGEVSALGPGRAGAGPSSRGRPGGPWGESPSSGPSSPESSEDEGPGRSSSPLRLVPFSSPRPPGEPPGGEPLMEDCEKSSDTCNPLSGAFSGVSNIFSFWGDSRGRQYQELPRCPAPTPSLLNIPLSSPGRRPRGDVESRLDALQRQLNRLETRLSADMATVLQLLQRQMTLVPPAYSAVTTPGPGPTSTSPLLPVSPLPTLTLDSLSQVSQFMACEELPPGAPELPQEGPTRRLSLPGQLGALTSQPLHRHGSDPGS
# [23] = Total Cmax in Beagle dog at 15 mg/kg, po qd measured after 60 days; format: ADME, organism-based, Canis lupus familiaris; conditions: in vivo, time 60 day
# [24] = Total AUC (0 to 24 hrs) in Beagle dog at 15 mg/kg, po qd measured after 60 days; format: ADME, organism-based, Canis lupus familiaris; conditions: in vivo, time 60 day
# [25] = Free AUC (0 to 24 hrs) in Beagle dog at 15 mg/kg, po qd measured after 60 days; format: ADME, organism-based, Canis lupus familiaris; conditions: in vivo, 1440 h, time 60 day
# [26] = Free Cmax in Beagle dog at 45 mg/kg, po qd measured after 60 days; format: ADME, organism-based, Canis lupus familiaris; conditions: in vivo, 1440 h, time 60 day
# [27] = Total AUC (0 to 24 hrs) in Beagle dog at 45 mg/kg, po qd measured after 60 days; format: ADME, organism-based, Canis lupus familiaris; conditions: in vivo, time 60 day
# [28] = Free AUC (0 to 24 hrs) in Beagle dog at 45 mg/kg, po qd measured after 60 days; format: ADME, organism-based, Canis lupus familiaris; conditions: in vivo, 1440 h, time 60 day
# [29] = Toxicity in Beagle dog assessed as uncoordinated movements at 15 to 45 mg/kg, po qd measured after 60 days; format: organism-based, Canis lupus familiaris; conditions: in vivo, 1440 h, dose 15-45 mg/kg, time 60 day
# [30] = Toxicity in Beagle dog assessed as splayed limbs at 15 to 45 mg/kg, po qd measured after 60 days; format: organism-based, Canis lupus familiaris; conditions: in vivo, 1440 h, dose 15-45 mg/kg, time 60 day
# [31] = Toxicity in female Beagle dog assessed as change in body weight at 15 to 45 mg/kg, po qd measured for 60 days; format: organism-based, Canis lupus familiaris; conditions: in vivo, 1440 h, dose 15-45 mg/kg, time 60 day
# [32] = Toxicity in male Beagle dog assessed as fold increase in alanine aminotransferase level at 45 mg/kg, po qd measured for 60 days; format: organism-based, Canis lupus familiaris; conditions: in vivo, 1440 h, time 60 day
# [33] = Toxicity in female Beagle dog assessed as fold decrease in calcium level at 15 to 45 mg/kg, po qd measured for 60 days; format: organism-based, Canis lupus familiaris; set-up: scale not given: the % may be the effect or the level left; conditions: in vivo, 1440 h, dose 15-45 mg/kg, time 60 day
# [34] = Toxicity in male Beagle dog assessed as fold decrease in total protein level at 15 mg/kg, po qd measured for 60 days; format: organism-based, Canis lupus familiaris; set-up: scale not given: the % may be the effect or the level left; conditions: in vivo, 1440 h, time 60 day
# [35] = Toxicity in female Beagle dog assessed as decrease in total protein level at 15 to 45 mg/kg, po qd measured for 60 days; format: organism-based, Canis lupus familiaris; set-up: scale not given: the % may be the effect or the level left; conditions: in vivo, 1440 h, dose 15-45 mg/kg, time 60 day
smiles,measurement,setting,value
COCCCOc1cc2c(nc1OC)-c1cc(=O)c(C(=O)O)cn1[C@H](C(C)C)C2,EC50,[1],0.0014 µM
same,log(activity),[2],<=0.94
same,log(activity),[3],<=0.94
same,Stability,[4],Stable
same,bioavailability,[5],112%
same,log(activity),[6],0.98
same,IC50 at 12 min,[7],> 25 µM
same,IC50 at 12 min,[8],> 25 µM
same,IC50 at 12 min,[9],> 25 µM
same,concentration at 24 h,[10],28.2 ng/g
same,concentration at 24 h,[11],53 ng/g
same,Kp at 24 h,[12],3.3
same,Kp at 24 h,[13],1.9
same,Cmax,[14],4680 ng/mL
same,fCmax,[15],1740 ng/mL
same,fAUC,[16],3900 ng·h/mL
same,fAUC,[17],11400 ng·h/mL
same,Cmax,[18],27800 ng/mL
same,fAUC,[19],35300 ng·h/mL
same,fAUC,[20],47500 ng·h/mL
same,Activity,[21],Toxic
COc1cc(OC(F)F)c2nc3c(n2c1)C[C@@H](C(C)(C)C)c1cc(C(=O)O)c(=O)[nH]c1-3,IC50,[22],> 30 µM
same,Cmax,[23],13900 ng/mL
same,AUC at 1440 h,[24],3900 ng·h/mL
same,fAUC,[25],1830 ng·h/mL
same,fCmax,[26],834 ng/mL
same,AUC at 1440 h,[27],65900 ng·h/mL
same,fAUC,[28],3100 ng·h/mL
same,Activity,[29],Non-Toxic
same,Activity,[30],Non-Toxic
same,Activity,[31],Non-Toxic
same,fold change (FC),[32],< 2
same,Activity,[33],< 10%
same,Activity,[34],< 20%
same,Activity,[35],< 15%
